Results reported in ChEMBL document CHEMBL1201862, “PubChem BioAssay data set” (2004).
Values joined by “and” are separate entries in the source; they are usually repeats but may differ in a detail not shown here. Equal values may be shown once.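 Exposure lasted 48 hours, with cells grown in 96-well plates and compounds tested at five concentrations. GI50 = concentration required for 50% inhibition of growth.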 Active and inactive are the calls of the source. Rule as the data show it: active = GI50 up to about 1.1 µM and inactive = higher.

Legend:
Test in all cases: NCI-60 cell line screen, 48 h
SK-OV-3 = test system: SK-OV-3
MOLT-4 = test system: MOLT-4
UACC-62 = test system: UACC-62
HOP-92 = test system: HOP-92
COLO 205 = test system: COLO 205
HT-29 = test system: HT-29
EKVX = test system: EKVX
RXF 393 = test system: RXF 393
OVCAR-5 = test system: OVCAR-5
SK-MEL-28 = test system: SK-MEL-28
LOX IMVI = test system: LOX IMVI
Malme-3M = test system: Malme-3M
UO-31 = test system: UO-31
SNB-19 = test system: SNB-19
M14 = test system: M14
SN12C = test system: SN12C
SW-620 = test system: SW-620

Row | SMILES | GI50 (SK-OV-3) | GI50 (MOLT-4) | GI50 (UACC-62) | GI50 (HOP-92) | GI50 (COLO 205) | GI50 (HT-29) | GI50 (EKVX) | GI50 (RXF 393) | GI50 (OVCAR-5) | GI50 (SK-MEL-28) | GI50 (LOX IMVI) | GI50 (Malme-3M) | GI50 (UO-31) | GI50 (SNB-19) | GI50 (M14) | GI50 (SN12C) | GI50 (SW-620)
1 | C[C@]12CCC3[C@@H](CC[C@@H]4c5nonc5CC[C@]34C)C1CC[C@@H]2O (some centres undefined) | 30.5 µM (inactive) | 23.3 µM (inactive) | 30.9 µM (inactive) | 23 µM (inactive) | 30.4 µM (inactive) | 32.7 µM (inactive) | 23.8 µM (inactive) | 24.8 µM (inactive) | > 100 µM (inactive) | 21.1 µM (inactive) | 19.6 µM (inactive) | 24.5 µM (inactive) | > 10 µM (inactive) | 41.6 µM (inactive) | 23.6 µM (inactive) | 22.1 µM (inactive) | 29.3 µM (inactive)
2 | C[C@@H]1C[C@@H]2C(=O)N(c3ccccc3)C(=O)[C@@H]2c2[nH]c3ccc(Br)cc3c21 | 22.3 µM (inactive) | 25 µM (inactive) | 84.7 µM (inactive) | 27.6 µM (inactive) | > 100 µM (inactive) | – | 36.9 µM (inactive) | 43.4 µM (inactive) | > 100 µM (inactive) | > 100 µM (inactive) | 96.8 µM (inactive) | 39.4 µM (inactive) | 45.9 µM (inactive) | 29.6 µM (inactive) | 75.2 µM (inactive) | 41 µM (inactive) | 35.5 µM (inactive)
3 | CCN(CC)CC(C)(C)C(=O)/C=C/c1cccc(/C=C/C(=O)C(C)(C)CN(CC)CC)c1 | 1.45 µM (inactive) | 0.27 µM (active) | 1.74 µM (inactive) | 0.504 µM (active) | 0.247 µM (active) | 0.366 µM (active) | 1.16 µM (inactive) | 0.433 µM (active) | 1.63 µM (inactive) | 1.42 µM (inactive) | 0.184 µM (active) | 1.59 µM (inactive) | 1.75 µM (inactive) | 1.79 µM (inactive) | 1.48 µM (inactive) | 0.303 µM (active) | 0.187 µM (active)
4 | NC(=O)/C(=N\NC(=O)C[n+]1ccccc1)C1NC(=O)NC1=O (centres undefined) | > 100 µM (inactive) | > 100 µM (inactive) | > 100 µM (inactive) | > 100 µM (inactive) | 32.7 µM (inactive) | > 100 µM (inactive) | > 100 µM (inactive) | > 100 µM (inactive) | > 100 µM (inactive) | > 100 µM (inactive) | > 100 µM (inactive) | > 100 µM (inactive) | > 100 µM (inactive) | > 100 µM (inactive) | > 100 µM (inactive) | > 100 µM (inactive) | 33.6 µM (inactive)
5 | Cc1ccccc1/N=N/c1c(-c2ccccc2)nn(C(=O)CC(=O)Nc2cccc(Cl)c2)c1-c1ccccc1 | 27.7 µM (inactive) | 13 µM (inactive) | 22 µM (inactive) | 26.3 µM (inactive) | 14.9 µM (inactive) | 15.3 µM (inactive) | 28.4 µM (inactive) | 19.9 µM (inactive) | 16.7 µM (inactive) | > 31.5 µM (inactive) | 15.3 µM (inactive) | 37.9 µM (inactive) | 14.5 µM (inactive) | 36.4 µM (inactive) | 22.1 µM (inactive) | 15.8 µM (inactive) | 3.16 µM (inactive)
6 | COc1cc2c(Cc3cc(OCc4ccccc4)ccc3N)nccc2c(OC)c1OC | > 10 µM (inactive) | > 10 µM (inactive) | > 10 µM (inactive) | > 10 µM (inactive) | > 10 µM (inactive) | > 10 µM (inactive) | > 10 µM (inactive) | > 10 µM (inactive) | > 10 µM (inactive) | > 10 µM (inactive) | > 10 µM (inactive) | > 10 µM (inactive) | > 10 µM (inactive) | > 10 µM (inactive) | > 10 µM (inactive) | > 10 µM (inactive) | > 10 µM (inactive)
7 | Cc1ccc(S(=O)(=O)n2c(-c3ccccc3)c(-c3ccccc3)c3ccccc32)cc1 | 5.32 µM (inactive) | > 100 µM (inactive) | > 100 µM (inactive) | 3.08 µM (inactive) | > 100 µM (inactive) | > 100 µM (inactive) | > 100 µM (inactive) | > 100 µM (inactive) | > 100 µM (inactive) | > 100 µM (inactive) | > 100 µM (inactive) | > 100 µM (inactive) | > 100 µM (inactive) | > 100 µM (inactive) | > 100 µM (inactive) | > 100 µM (inactive) | > 100 µM (inactive)
8 | O=C(Nc1ccc(Cl)cc1)c1cccc([N+](=O)[O-])c1O | 2.96 µM (inactive) | 2.5 µM (inactive) | 1.85 µM (inactive) | 1.61 µM (inactive) | 2.91 µM (inactive) | 4.25 µM (inactive) | 2.98 µM (inactive) | 1.78 µM (inactive) | 12 µM (inactive) | 4.99 µM (inactive) | 3.74 µM (inactive) | 1.37 µM (inactive) | 1.98 µM (inactive) | 2.92 µM (inactive) | 3.63 µM (inactive) | 4.09 µM (inactive) | 4.81 µM (inactive)
9 | COc1ccc(-c2cc(-c3ccco3)c(C#N)c(=O)n2C2OC(OC(=O)c3ccccc3)C(OC(=O)c3ccccc3)C2OC(=O)c2ccccc2)cc1 (centres undefined) | – | > 100 µM (inactive) | > 10 µM (inactive) | 23.9 µM (inactive) | > 100 µM (inactive) | > 100 µM (inactive) | > 100 µM (inactive) | 14.4 µM (inactive) | > 100 µM (inactive) | > 100 µM (inactive) | > 100 µM (inactive) | > 100 µM (inactive) | 46 µM (inactive) | 62.5 µM (inactive) | > 100 µM (inactive) | > 100 µM (inactive) | > 100 µM (inactive)
10 | O=c1ncccn1[C@@H]1O[C@H](CO)[C@@H](O)[C@@H]1F | > 100 µM (inactive) | > 100 µM (inactive) | – | > 100 µM (inactive) | > 100 µM (inactive) | > 100 µM (inactive) and > 61.9 µM (inactive) | > 100 µM (inactive) | > 100 µM (inactive) | > 100 µM (inactive) | > 64 µM (inactive) | > 100 µM (inactive) and > 59.2 µM (inactive) | > 100 µM (inactive) and > 67.1 µM (inactive) | – | > 100 µM (inactive) | > 100 µM (inactive) | > 100 µM (inactive) | –
11 | S=c1sc2c(Cl)ncnc2n1-c1ccccc1 | 20 µM (inactive) | 18.2 µM (inactive) | 9.62 µM (inactive) | 19.7 µM (inactive) | 14 µM (inactive) | 11.4 µM (inactive) | 17.7 µM (inactive) | 15.1 µM (inactive) | 22.9 µM (inactive) | 11.2 µM (inactive) | 4.28 µM (inactive) | 10.9 µM (inactive) | 18.7 µM (inactive) | 18.2 µM (inactive) | 13.3 µM (inactive) | 15.8 µM (inactive) | 17.4 µM (inactive)
12 | COc1ccc(C(=O)O/N=C2/CCCCC2CN(C)C)cc1 (centres undefined) | > 100 µM (inactive) | > 100 µM (inactive) | > 100 µM (inactive) | > 100 µM (inactive) | > 100 µM (inactive) | > 100 µM (inactive) | > 100 µM (inactive) | > 100 µM (inactive) | > 100 µM (inactive) | > 100 µM (inactive) | > 100 µM (inactive) | > 100 µM (inactive) | > 100 µM (inactive) | – | > 100 µM (inactive) | > 100 µM (inactive) | > 100 µM (inactive)
13 | COc1cc2c(cc1OC)[C@H]1C(COC(=O)c3ccccc3)CS/C(=N/c3ccccc3)N1CC2 (some centres undefined) | > 100 µM (inactive) | 2.91 µM (inactive) | > 100 µM (inactive) | 8.17 µM (inactive) | > 100 µM (inactive) | 8.24 µM (inactive) | > 100 µM (inactive) | 13.3 µM (inactive) | 3.54 µM (inactive) | > 100 µM (inactive) | 92.9 µM (inactive) | > 100 µM (inactive) | 24.5 µM (inactive) | 21 µM (inactive) | > 100 µM (inactive) | > 100 µM (inactive) | > 100 µM (inactive)
14 | COc1cc(/C=C2\NC(=S)C3Cc4c(OC)c(C)c(OC)c(OC)c4C2N3C)c(OC)c(C)c1OC (centres undefined) | > 100 µM (inactive) | 21.2 µM (inactive) | 98.4 µM (inactive) | 9.38 µM (inactive) | 16.5 µM (inactive) | 61.4 µM (inactive) | 36.8 µM (inactive) | 24.7 µM (inactive) | > 100 µM (inactive) | > 100 µM (inactive) | 48 µM (inactive) | 29 µM (inactive) | 21.2 µM (inactive) | 65.3 µM (inactive) | 42.8 µM (inactive) | > 100 µM (inactive) | 59.4 µM (inactive)
15 | CNC(=O)CN(CC(N)=O)C(=O)NC | > 100 µM (inactive) | > 100 µM (inactive) | > 100 µM (inactive) | > 100 µM (inactive) | > 100 µM (inactive) | > 100 µM (inactive) | > 100 µM (inactive) | > 100 µM (inactive) | > 100 µM (inactive) | > 100 µM (inactive) | > 100 µM (inactive) | > 100 µM (inactive) | > 100 µM (inactive) | > 100 µM (inactive) | > 100 µM (inactive) | – | > 100 µM (inactive)
16 | O=c1[nH]cnc2c1nnn2C1C=C(CO)C(O)C1O (centres undefined) | > 100 µM (inactive) | > 100 µM (inactive) | > 100 µM (inactive) | > 100 µM (inactive) | > 100 µM (inactive) | > 100 µM (inactive) | > 100 µM (inactive) | > 100 µM (inactive) | > 100 µM (inactive) | > 100 µM (inactive) | 30.8 µM (inactive) | – | > 100 µM (inactive) | > 100 µM (inactive) | > 100 µM (inactive) | > 100 µM (inactive) | > 10 µM (inactive)
